# Results reported in patent US20200207782A1, “CHEMICALLY ACTIVATED WATER-SOLUBLE PRODRUG” (SUMITOMO DAINIPPON PHARMA CO., LTD, priority 2017, published 2020).
# Legend:
# [1] = Evaluation of conversion rate to active form in human plasma; type: in vitro ADME; conditions: human, 10 umol/L
# Description: (§1) The ratio of decrease of a test compound and the conversion ratio to a corresponding active form (2-acetylthieno[3,2-f][1]benzofuran-4,8-dione) in human plasma and CD1 mouse plasma were measured for Example 1.
# (§2) The test compounds were incubated at 37° C. at a concentration of 10 umol/L in human plasma (cat. no. 12250210, Cosmo Bio) and CD1 mouse plasma (cat. no. AP3054, KAC) and retrieved for a given time (0, 5, 10, 30, 60, and 120 minutes) and deproteinized, then analyzed by LC-MS. Acetonitrile comprising each of 10% quantity of 1 mol/L hydrochloric acid, 1% quantity of 46% citric acid, and phenytoin as an internal standard was used for deproteinization.
# (§3) LC-MS measurement conditions were the following.
# (§4) The yield of the Examples compounds and active form 2-acetylthieno[3,2-f][1]benzofuran-4,8-dione is calculated with each of the peak area of the Example compounds at 0 minutes and the peak area upon dissolution of 2-acetylthieno[3,2-f][1]benzofuran-4,8-dione at 100 umol/L as 100%. The yield is denoted in terms of %.
# (§5) In the same manner as Example 1, the conversion ratio to an active form was measured for each of the various test compounds in human plasma and CD1 mouse plasma, with incubation time as 120 minutes. It was confirmed that the series of compounds of the invention was converted to an active form with a small interspecies difference in human plasma and CD1 mouse plasma.
# (§6) The yield of the active forms is calculated with the each peak area upon dissolution of the generated active form at 100 umol/L as 100%. The yield is denoted in terms of %.
# [2] = Evaluation of conversion rate to active form in CD1 mouse plasma; type: in vitro ADME; conditions: CD1, mouse, 10 umol/L
# Description: as §1, §2, §3, §4, §5, §6
# [3] = physchem; conditions: 50 mmol/L glycine buffer, pH 2, aqueous buffer, thermodynamic from solid
# [4] = pH 2
Compound,Measurement value % of active form (conversion ratio to active form) ([1]; 0 min) [%],Measurement value % of active form (conversion ratio to active form) ([1]; 5 min) [%],Measurement value % of active form (conversion ratio to active form) ([1]; 10 min) [%],Measurement value % of active form (conversion ratio to active form) ([1]; 30 min) [%],Measurement value % of active form (conversion ratio to active form) ([1]; 60 min) [%],Measurement value % of active form (conversion ratio to active form) ([1]; 120 min) [%],Measurement value % of active form (conversion ratio to active form) ([2]; 0 min) [%],Measurement value % of active form (conversion ratio to active form) ([2]; 5 min) [%],Measurement value % of active form (conversion ratio to active form) ([2]; 10 min) [%],Measurement value % of active form (conversion ratio to active form) ([2]; 30 min) [%],Measurement value % of active form (conversion ratio to active form) ([2]; 60 min) [%],Measurement value % of active form (conversion ratio to active form) ([2]; 120 min) [%],solubility at 24 h [3] [µg/mL],Solubility in buffer [4]
"CC(=O)c1cc2c(o1)C(=O)c1sccc1C2=O [2-acetylthieno[3,2-f][1]benzofuran-4,8-dione, reference compound]",0.0,36.4,51.6,83.4,89.7,91.3,0.0,21.1,36.7,70.8,73.8,71.4,4,
"C[C@H]1COC2=C1C(=O)C(=O)c1c2ccc2c1CCCC2(C)C [(1R)-1,6,6-trimethyl-1,2,6,7,8,9-hexahydrophenanthro[1,2-b]furan-10,11-dione]",,,,,,,,,,,,,,Below
